System: peripheral blood erythrocytes from Swiss mice
Assay: Alkaline comet assay in vivo
Design: species or system Mus musculus
Conditions: for damage frequency (comet assay) compared to negative control / damage index (comet assay) compared to negative control: intraperitoneally
Procedure: Forty female Mus musculus mice (Swiss strain) were used. The animals were divided into 8 groups, with 5 animals each: G1—negative control (NC) treated with the vehicle solution intraperitoneally; G2—positive control (PC) treated intraperitoneally with cyclophosphamide at a dose of 30 mg/kg; groups exposed to the BV3 derivative—Group BV3—I intraperitoneally at doses of 2000 mg/kg; Group BV3—II 1000 mg/kg; Group BV3—III 500 mg/kg; and groups exposed to BV5—Group BV5—I, received BV5 intraperitoneally at doses of 2000 mg/kg; Group BV5—II 1000 mg/kg; and Group BV5—III 500 mg/kg. For the comet assay, approximately 0.5 mL of blood from each animal was collected via the tail vein 6–8 h after administration of the compounds. For the micronucleus test, 1 mL of blood from each animal was collected by cardiac puncture 48 h after administration of the compounds. For that collection, the mice were anesthetized with ketamine (100 mg/kg) and xylazine (10 mg/kg), intraperitoneally. Immediately after blood collection, the animals were euthanized with high doses of anesthetics (ketamine 300 mg/kg and xylazine 30 mg/kg). The in vivo experiments were approved by the Ethics Committee on the Use of Animals (CEUA) of the Federal University of Pernambuco, under process no. 004/2023.
The female mice (n = 40) were equally distributed into 8 experimental groups; the groups were composed of 5 female animals each. After administering the solutions and compounds to the groups, blood samples were taken 6 and 8 h after treatment. Subsequently, 15 µL of blood was used, which was homogenized with 100 µL of low-melting-point agarose (LM agarose) and subsequently deposited on slides previously prepared with standard agarose. The slides were covered with coverslips and left at 4 °C for 10 min. After refrigeration, the coverslips were removed and the slides were placed in a lysis solution (2.5 M NaCl, 100 mM EDTA, 10 mM tris, 1% Triton x-100, 10% DMSO, pH 13) for 48 h. After lysis, the slides were left in an alkaline electrophoresis buffer ([…] and […] EDTA disodium salt, pH 13) for 20 min to unroll the DNA and then subjected to electrophoresis in a horizontal vat for 20 min, with a current of ± 300 mA and potential difference of 32 V. After electrophoresis, the slides were neutralized for 15 min in 0.4 M tris-HCl buffer, pH 7.5, and fixed for 5 min in absolute ethanol. The slides were stained with 100 µL of a 1 µg/mL acridine orange solution. All test steps were carried out under red light. To analyze damage levels, 100 nucleoids from each animal were evaluated for damage level. For this, each nucleoid was classified into one of five classes according to the proportion of DNA in the comet’s tail and head: 0 (no damage); 1 (little apparent damage); 2 (medium damage); 3 (medium damage with longer tail); and 4 (maximum damage). The Damage Index (DI) was thus calculated according to the formula DI=0×nºclass comets 0+1×nºclass comets 1+2×nºclass comets 2+3×nºclass comets 3+4×(nºclass comets 4)
Thus, the values obtained could range from 0 (no damage) to 400 (maximum damage). Additionally, the Frequency of damage (FD) was calculated based on the percentage of all nucleoids with some damage (class 1 to class 4) relative to the total number of nucleoids counted per animal: FD=nºofdamaged comets−nºclass comets 0×100/(nºtotal)

| Structure (SMILES) | damage frequency (comet assay) compared to negative control (2000 mg/kg) | damage index (comet assay) compared to negative control (2000 mg/kg) | damage frequency (comet assay) compared to negative control (500 and 1000 mg/kg) | damage index (comet assay) compared to negative control (500 and 1000 mg/kg) | frequency of damage (comet assay) (any of the tested doses (500, 1000, 2000 mg/kg)) |
| --- | --- | --- | --- | --- | --- |
| CC1(C)CCC2=C(O1)c1ccccc1/C(=N/NC(=S)Nc1ccc([N+](=O)[O-])cc1)C2=O [BV3, 2-(2,2-dimethyl-5-oxo-3,4-dihydro-2H-benzo[h]chromen-6(5H)-ylidene)-N-(4nitrophen-yl)thio-carbohydrazide] | decrease | decrease | no significant differences | no significant differences | – |
| Cc1ccc(NC(=S)N/N=C2\C(=O)C3=C(OC(C)(C)CC3)c3ccccc32)cc1 [BV5, 2-(2,2-dimethyl-5-oxo-3,4-dihydro-2H-benzo[h]chromen-6(5H)-ylidene)-N-(p-tolyl)-thiocarbohydrazide] | – | increase | – | no differences | no difference |

From publication PMC12196213, “New Insights into the Anticancer Effects and Toxicogenomic Safety of Two β-Lapachone Derivatives” (Pharmaceuticals, 2025)
